Bounds are passed on as bounds.

One assay concerns P. falciparum (NF54 or 3D7 strain). As to the kind of experiment: Assay for P. falciparum proliferation in infected human blood cells (SYBR Green). The assay is classed as cell-based, Plasmodium falciparum. As to conditions: Plasmodium falciparum, Erythrocyte, 72 h, NF54 or 3D7 infected human erythrocytes, 72 hours; read-out: EC50 (nM), inhibitory efficacy in delaying P. falciparum proliferation in infected human blood cells. Summed up:
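NF54 or 3D7 parasites in O+ human erythrocytes at 2.5% hematocrit and 0.3% parasitemia final, exposed to compounds 72 h at 37 °C under 93% N2/4% CO2/3% O2.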
As for `O=C(Nc1nc2cccc(Cl)c2s1)c1cn2c(-c3ccc(C(F)(F)F)cc3)cnc2cn1` [Compound 442, N-(7-chloro-1,3-benzothiazol-2-yl)-3-[4-(trifluoromethyl)phenyl]imidazo[1,2-a]pyrazine-6-carboxamide], the EC50 was determined as 604 nM. Still for that read-out and setting: under `CNc1nnc(-c2ccc(-c3cnc4cnc(C(=O)N(C)c5ccc(C#N)cc5)cn34)cc2)s1` [Compound 476, N-(4-cyanophenyl)-N-methyl-3-{4-[5-(methylamino)-1,3,4-thiadiazol-2-yl]phenyl}imidazo[1,2-a]pyrazine-6-carboxamide] stands 9 nM; under `CNc1nnc(-c2ccc(-c3cnc4cnc(C(=O)N(C)c5ccc(F)cc5)cn34)cc2)o1` [Compound 478, N-(4-fluorophenyl)-N-methyl-3-{4-[5-(methylamino)-1,3,4-oxadiazol-2-yl]phenyl}imidazo[1,2-a]pyrazine-6-carboxamide], 31 nM; under `CN(Cc1cn2c(-c3ccc(OC(F)F)cc3)cnc2cn1)c1ccc(C#N)cc1` [Compound 479, 4-[({3-[4-(difluoromethoxy)phenyl]imidazo[1,2-a]pyrazin-6-yl}methyl)(methyl)amino]benzonitrile], 35 nM. Still for that read-out and setting: under `CN(C(=O)c1cn2c(-c3ccc4c(cnn4C)c3)cnc2cn1)c1ccc(Cl)cc1` [Compound 480, N-(4-chlorophenyl)-N-methyl-3-(1-methyl-1H-indazol-5-yl)imidazo[1,2-a]pyrazine-6-carboxamide] stands 25 nM; under `CN(C(=O)c1cn2c(-c3ccc(-c4ccn[nH]4)cc3)cnc2cn1)c1ccc(C#N)cc1` [Compound 481, N-(4-cyanophenyl)-N-methyl-3-[4-(1H-pyrazol-5-yl)phenyl]imidazo[1,2-a]pyrazine-6-carboxamide], 34 nM. The same measure, in the same setting: the figure for `CNc1nnc(-c2ccc(-c3cnc4cnc(C(=O)N(C)c5ccc(Cl)cc5)cn34)cc2)o1` [Compound 483, N-(4-chlorophenyl)-N-methyl-3-{4-[5-(methylamino)-1,3,4-oxadiazol-2-yl]phenyl}imidazo[1,2-a]pyrazine-6-carboxamide] is 9 nM. Take `CN(C(=O)c1cn2c(-c3ccc(-c4cc[nH]n4)cc3)cnc2cn1)c1ccc(C#N)cc1` [Compound 484, N-(4-cyanophenyl)-N-methyl-3-[4-(1H-pyrazol-3-yl)phenyl]imidazo[1,2-a]pyrazine-6-carboxamide]: the EC50 is 20 nM. The same measure, in the same setting: under `CC(=O)Nc1ccc(-c2cnc3cnc(C(=O)N(C)c4ccc(C#N)cc4)cn23)cc1` [Compound 485, N-(4-cyanophenyl)-3-(4-acetamidophenyl)-N-methylimidazo[1,2-a]pyrazine-6-carboxamide] stands 54 nM; under `CN(C(=O)c1cn2c(-c3ccc4c(cnn4C)c3)cnc2cn1)c1ccc(Cl)nc1` [Compound 489, N-(6-chloropyridin-3-yl)-N-methyl-3-(1-methyl-1H-indazol-5-yl)imidazo[1,2-a]pyrazine-6-carboxamide], 522 nM. Same read-out and setting: the figure for `CN(C(=O)c1cn2c(-c3ccc(C(F)(F)F)cc3)cnc2cn1)c1cc(F)ccn1` [Compound 490, N-(4-fluoropyridin-2-yl)-N-methyl-3-[4-(trifluoromethyl)phenyl]imidazo[1,2-a]pyrazine-6-carboxamide] is 293 nM; for `COc1ncccc1N(C)C(=O)c1cn2c(-c3ccc(C(F)(F)F)cc3)cnc2cn1` [Compound 492, N-(2-methoxypyridin-3-yl)-N-methyl-3-[4-(trifluoromethyl)phenyl]imidazo[1,2-a]pyrazine-6-carboxamide] it is 377 nM; for `CN(C(=O)c1cn2c(-c3ccc(-c4nncs4)cc3)cnc2cn1)c1ccc(C#N)cc1` [Compound 493, N-(4-cyanophenyl)-N-methyl-3-[4-(1,3,4-thiadiazol-2-yl)phenyl]imidazo[1,2-a]pyrazine-6-carboxamide] it is 529 nM. As for `O=C(c1cn2c(-c3ccc(C(F)(F)F)cc3)cnc2cn1)N1CCS(=O)(=O)c2ccccc21` [Compound 494, (1,1-dioxido-2H-benzo[b][1,4]thiazin-4(3H)-yl)(3-(4-(trifluoromethyl)phenyl)imidazo[1,2-a]pyrazin-6-yl)methanone], the EC50 was 3350 nM.

Take `CN(C(=O)c1cn2c(-c3ccc(C(F)(F)F)cc3)cnc2cn1)c1cnc(Cl)s1` [Compound 496, N-(2-chloro-1,3-thiazol-5-yl)-N-methyl-3-[4 (trifluoromethyl)phenyl]imidazo[1,2-a]pyrazine-6-carboxamide]: the EC50 came out at 2840 nM. The same measure, in the same setting: under `O=C1CN(C(=O)c2cn3c(-c4ccc(C(F)(F)F)cc4)cnc3cn2)c2ccccc2N1` [Compound 497, 4-({3-[4-(trifluoromethyl)phenyl]imidazo[1,2-a]pyrazin-6-yl}carbonyl)-1,2,3,4-tetrahydroquinoxalin-2-one] stands over 9320 nM. Same read-out and setting: under `CN(C(=O)c1cncnc1)c1cn2c(-c3ccc(C(F)(F)F)cc3)cnc2cn1` [Compound 498, N-methyl-N-{3-[4-(trifluoromethyl)phenyl]imidazo[1,2-a]pyrazin-6-yl}pyrimidine-5-carboxamide] stands 5690 nM. The same measure, in the same setting: under `CN(C(=O)c1cn2c(-c3ccc(C(F)(F)F)cc3)cnc2cn1)c1ccc(-c2ccccc2)nc1` [Compound 499, N-methyl-N-(6-phenylpyridin-3-yl)-3-[4-(trifluoromethyl)phenyl]imidazo[1,2-a]pyrazine-6-carboxamide] stands 4510 nM. Turning to `CN(C(=O)c1cn2c(-c3ccc(C(F)(F)F)cc3)cnc2cn1)c1ccc(C(F)(F)F)cc1` [Compound 500, N-methyl-N,3-bis[4-(trifluoromethyl)phenyl]imidazo[1,2-a]pyrazine-6-carboxamide], the EC50 is 353 nM. Take `CN(C(=O)c1cn2c(-c3ccc(C(F)(F)F)cc3)cnc2cn1)c1ccc(S(C)(=O)=O)cc1` [Compound 501, N-(4-methanesulfonylphenyl)-N-methyl-3-[4-(trifluoromethyl)phenyl]imidazo[1,2-a]pyrazine-6-carboxamide]: the EC50 was 1450 nM. The same measure, in the same setting: the figure for `CN(C(=O)c1cn2c(-c3ccc(C(F)(F)F)cc3)cnc2cn1)c1ccc(C#N)c(Cl)c1` [Compound 502, N-(3-chloro-4-cyanophenyl)-N-methyl-3-[4-(trifluoromethyl)phenyl]imidazo[1,2-a]pyrazine-6-carboxamide] is 2000 nM; for `COc1cc(C#N)ccc1N(C)C(=O)c1cn2c(-c3ccc(C(F)(F)F)cc3)cnc2cn1` [Compound 503, N-(4-cyano-2-methoxyphenyl)-N-methyl-3-[4-(trifluoromethyl)phenyl]imidazo[1,2-a]pyrazine-6-carboxamide] it is 60 nM.

The same assay, now with this note: Plasmodium falciparum, Erythrocyte, 72 h, read-out: EC50 (nM), inhibitory efficacy in delaying P. falciparum proliferation in infected human blood cells.
`O=C(Nc1ccc(C(F)(F)F)cc1)c1cn2c(-c3ccc(C(F)(F)F)cc3)cnc2cn1` [Compound 445, N,3-bis[4-(trifluoromethyl)phenyl]imidazo[1,2-a]pyrazine-6-carboxamide]: the EC50 is over 10000 nM.

The same assay, now with this note: Plasmodium falciparum, Erythrocyte, infected human red blood cells; read-out: EC50, P. falciparum Proliferation Assay.
As to `CNc1nnc(-c2ccc(-c3cnc4cnc(C(=O)N(C)c5ccc(F)cc5)cn34)cc2)o1` [Compound 478, N-(4-fluorophenyl)-N-methyl-3-{4-[5-(methylamino)-1,3,4-oxadiazol-2-yl]phenyl}imidazo[1,2-a]pyrazine-6-carboxamide], the EC50 was under 50 nM. Still for that read-out and setting: under `CNc1nnc(-c2ccc(-c3cnc4cnc(C(=O)N(C)c5ccc(Cl)cc5)cn34)cc2)o1` [Compound 483, N-(4-chlorophenyl)-N-methyl-3-{4-[5-(methylamino)-1,3,4-oxadiazol-2-yl]phenyl}imidazo[1,2-a]pyrazine-6-carboxamide] stands under 50 nM.

For the origin of these results see patent publication US20150291598A1 (NOVARTIS AG, priority 2012, published 2015).
